Tested on: Vγ9Vδ2 T cells
Experiment: γ9δ2 T cell proliferation/expansion after coculture of ZA-loaded iDCs with PBLs
Format: cell-based, human
Details: 7-day coculture of ZA-loaded iDCs with PBLs
Method: To check the functionality of the retained compound, ZA, the expansion of γ9δ2 T cells was evaluated after cocultivation of ZA-loaded iDCs with cryopreserved PBLs.
For evaluation of ex vivo frequency of γ9δ2 T cells freshly isolated PBMCs were stained with anti-CD3, anti-TCR-Vδ2 mABs and analysed via flow cytometry. Therefore, iDCs have been incubated as indicated for 24 h in standard medium (1×10^6 cells/mL) containing 5 μM ZA.
After loading with ZA, iDCs have been centrifuged and washed with PBS. The coculture of iDCs with PBLs was setup in a ratio of 20 (iDCs): γ9δ2 T cells ex vivo. The medium was supplemented with 10 U/mL IL-2 (Proleukin). After 7-day incubation cells were harvested, washed and stained with anti-CD3, anti-TCR-Vδ2 mABs to evaluate frequency of γ9δ2 T cells and their expansion via flow cytometry. For analysis the expansion rate was determined dividing whole cell amount of γ9δ2 T cells before or after 7-day-cultivation.

O=P(O)(O)C(O)(Cn1ccnc1)P(=O)(O)O [free ZA, zoledronic acid]
expansion rate of Vγ9δ2 T cells: about 15 fold

Source: patent publication US11337922B2, “Lipid particle formulations for delivery of RNA and water-soluble therapeutically effective compounds to a target cell” (BioNTech RNA Pharmaceuticals GmbH, priority 2015, dated 2022)
